Source: ChEMBL document CHEMBL5365396, “Design, synthesis and anti-tumor evaluation of plinabulin derivatives as potential agents targeting β-tubulin” (Bioorg Med Chem Lett, 2023)
Active and inactive are the calls of the source. The rule behind the calls is not given here.

Assays:
[1] = system: NCI-H460; assay: Antiproliferative activity against human NCI-H460 cells assessed as cell growth inhibition by MTT assay; type: functional, cell-based
[2] = system: BXPC-3; assay: Antiproliferative activity against human BXPC-3 cells assessed as cell growth inhibition by MTT assay; type: functional, cell-based
[3] = system: HCT-116; assay: Antiproliferative activity against human HCT-116 cells assessed as cell growth inhibition by MTT assay; type: functional, cell-based
[4] = Induction of apoptosis in human HCT-116 cells assessed as early apoptotic cells at 5 nM by Annexin-V-FITC and PI staining based flow cytometry (reference value: 3.20 %); type: functional
[5] = target: T1, Tubulin beta (Homo sapiens) (UniProt P68371+Q9H4B7+Q13509+P04350+Q3ZCM7+P07437+Q13885+Q9BVA1+Q9BUF5+A6NNZ2); assay: Induction of beta-tubulin depolymerization in human HCT-116 cells assessed as microtubule disruption at 10 nM incubated for 24 hrs by DAPI staining based immunofluorescence assay relative to control; type: cell-based
[6] = system: HCT-116; assay: Induction of cell cycle arrest in human HCT-116 cells assessed as accumulation of cells at S phase at 20 nM by propidium iodide staining based flow cytometry analysis (reference value: 39.4 %); type: functional
[7] = system: HCT-116; assay: Induction of cell cycle arrest in human HCT-116 cells assessed as accumulation of cells at G1 phase at 20 nM by propidium iodide staining based flow cytometry analysis (reference value: 37.85 %); type: functional
[8] = system: HCT-116; assay: Induction of cell cycle arrest in human HCT-116 cells assessed as increase in accumulation at G2/M phase by propidium iodide staining based flow cytometry; type: functional; settings: dose 5-20 nM
[9] = system: HCT-116; assay: Induction of cell cycle arrest in human HCT-116 cells assessed as increase in accumulation at G2/M phase at 20 nM by propidium iodide staining based flow cytometry relative to control; type: functional
[10] = system: HCT-116; assay: Induction of apoptosis in human HCT-116 cells assessed as increase in early apoptosis cells at 20 nM by Annexin-V-FITC and PI staining based flow cytometry analysis relative to control; type: functional
[11] = system: HCT-116; assay: Induction of apoptosis in human HCT-116 cells assessed as early apoptotic cells at 10 nM by Annexin-V-FITC and PI staining based flow cytometry (reference value: 3.20 %); type: functional
[12] = system: HCT-116; assay: Induction of cell cycle arrest in human HCT-116 cells assessed as accumulation of cells at G1 phase at 10 nM by propidium iodide staining based flow cytometry analysis (reference value: 37.85 %); type: functional
[13] = system: HCT-116; assay: Induction of cell cycle arrest in human HCT-116 cells assessed as increase in accumulation at G2/M phase at 10 nM by propidium iodide staining based flow cytometry relative to control; type: functional
[14] = system: HCT-116; assay: Induction of cell cycle arrest in human HCT-116 cells assessed as accumulation of cells at S phase at 5 nM by propidium iodide staining based flow cytometry analysis (reference value: 39.4 %); type: functional
[15] = system: HCT-116; assay: Induction of apoptosis in human HCT-116 cells assessed as late apoptotic cells at 10 nM by Annexin-V-FITC and PI based flow cytometry (reference value: 1.75 %); type: functional
[16] = system: HCT-116; assay: Induction of apoptosis in human HCT-116 cells assessed as increase in late apoptosis cells at 20 nM by Annexin-V-FITC and PI staining based flow cytometry analysis relative to control; type: functional
[17] = system: HCT-116; assay: Induction of apoptosis in human HCT-116 cells assessed as late apoptotic cells at 5 nM by Annexin-V-FITC and PI staining based flow cytometry (reference value: 1.75 %); type: functional
[18] = target: T1, Tubulin beta (Homo sapiens); assay: Induction of beta-tubulin depolymerization in human HCT-116 cells assessed as disruption of microtubule network by measuring abnormality in formation of spindle bodies at 10 nM measured after 24 hrs by DAPI staining based immunofluorescence assay; type: cell-based
[19] = system: HCT-116; assay: Induction of cell cycle arrest in human HCT-116 cells assessed as accumulation of cells at G1 phase at 5 nM by propidium iodide staining based flow cytometry analysis (reference value: 37.85 %); type: functional
[20] = system: HCT-116; assay: Induction of cell cycle arrest in human HCT-116 cells assessed as accumulation of cells at S phase at 10 nM by propidium iodide staining based flow cytometry analysis (reference value: 39.4 %); type: functional
[21] = system: HCT-116; assay: Induction of cell cycle arrest in human HCT-116 cells assessed as increase in accumulation at G2/M phase at 5 nM by propidium iodide staining based flow cytometry relative to control; type: functional

Compound | IC50 [1] [nM] | IC50 [2] [nM] | IC50 [3] [nM] | further results
CCC(=O)Nc1cccc(/C=c2\[nH]c(=O)/c(=C/c3nc[nH]c3C(C)(C)C)[nH]c2=O)c1 | 2290 | 598 | 243 | 
CC(C)(C)c1[nH]cnc1/C=c1\[nH]c(=O)/c(=C/c2cccc(NC(=O)C3CC3)c2)[nH]c1=O | 2340 | 1570 | 730 | 
CC(C)(C)c1[nH]cnc1/C=c1\[nH]c(=O)/c(=C/c2cccc(NC(=O)CN)c2)[nH]c1=O | 843 | 272 | 214 | 
CC(=O)Nc1cccc(/C=c2\[nH]c(=O)/c(=C/c3nc[nH]c3C(C)(C)C)[nH]c2=O)c1 | 667 | 540 | 238 | 
CC(C)(C)c1[nH]cnc1/C=c1\[nH]c(=O)/c(=C/c2cccc(NC(=O)c3cc4ccccc4[nH]3)c2)[nH]c1=O | > 5000 | 1760 | 2660 | 
CC(C)(C)c1[nH]cnc1/C=c1\[nH]c(=O)/c(=C/c2cccc(NC(=O)C3CCCN3)c2)[nH]c1=O (configuration not stated) | 302 | 22.9 | 72.1 | 
CC(C)(C)c1[nH]cnc1/C=c1\[nH]c(=O)/c(=C/c2cccc(NC(=O)c3ccc(F)cc3)c2)[nH]c1=O | 271 | 595 | 123 | 
Cc1ccc(F)cc1C(=O)Nc1cccc(/C=c2\[nH]c(=O)/c(=C/c3nc[nH]c3C(C)(C)C)[nH]c2=O)c1 | 1310 | 1590 | 362 | 
CC(C)(C)c1[nH]cnc1/C=c1\[nH]c(=O)/c(=C/c2cccc(NC(=O)C3CCC3)c2)[nH]c1=O | 1490 | 585 | 895 | 
CC(C)(C)c1[nH]cnc1/C=c1\[nH]c(=O)/c(=C/c2cccc(NC(=O)C3CCCCC3)c2)[nH]c1=O | 618 | 1020 | 1320 | 
CC(C)(C)c1[nH]cnc1/C=c1\[nH]c(=O)/c(=C/c2cccc(NC(=O)c3cccc(C(=O)c4ccccc4)c3)c2)[nH]c1=O | > 5000 | 4460 | > 5000 | 
Cc1ccc(C(=O)Nc2cccc(/C=c3\[nH]c(=O)/c(=C/c4nc[nH]c4C(C)(C)C)[nH]c3=O)c2)c(C)c1 | 1280 | 2590 | 504 | 
CC(C)[C@H](CN)C(=O)Nc1cccc(/C=c2\[nH]c(=O)/c(=C/c3nc[nH]c3C(C)(C)C)[nH]c2=O)c1 (stereo in doubt) | 1430 | 31.4 | 31.3 | 
CC(C)(C)c1[nH]cnc1/C=c1\[nH]c(=O)/c(=C/c2c[nH]c3ccccc23)[nH]c1=O | 82.8 | 13.7 | 6.5 | 
CC(C)(C)C(=O)Nc1cccc(/C=c2\[nH]c(=O)/c(=C/c3nc[nH]c3C(C)(C)C)[nH]c2=O)c1 | 3180 | 1890 | 2880 | 
CC(C)(C)c1[nH]cnc1/C=c1\[nH]c(=O)/c(=C/c2cc3ccccc3[nH]2)[nH]c1=O | 1390 | 2770 | 3310 | 
COc1ccc(C(=O)Nc2cccc(/C=c3\[nH]c(=O)/c(=C/c4nc[nH]c4C(C)(C)C)[nH]c3=O)c2)cc1 | 1170 | 1510 | 1040 | 
CC(C)(C)c1[nH]cnc1/C=c1\[nH]c(=O)/c(=C/c2cccc3cc[nH]c23)[nH]c1=O | 286 | 9.5 | 390 | 
CC(C)(C)c1[nH]cnc1/C=c1\[nH]c(=O)/c(=C/c2cccc(NC(=O)c3ccccn3)c2)[nH]c1=O | 3850 | 520 | 226 | 
CC(C)(C)c1[nH]cnc1/C=c1\[nH]c(=O)/c(=C/c2cccc3[nH]ccc23)[nH]c1=O | 20.9 | 16.7 | 7.3 | Activity [4]: 4.9%; Activity [5]: 77%; Activity [6]: 41.7%; Activity [7]: 5.69%; Activity [8]: Dose-Dependent Effect; fold change (FC) [9]: 2.7; fold change (FC) [10]: 6.4; Activity [11]: 6.15%; Activity [12]: 32.3%; fold change (FC) [13]: 1.4; Activity [14]: 41.45%; Activity [15]: 2.55%; fold change (FC) [16]: 3.9; Activity [17]: 2%; Activity [18]: Active; Activity [19]: 33.6%; Activity [20]: 37.05%; fold change (FC) [21]: 1.1
CC(C)(C)c1[nH]cnc1/C=c1\[nH]c(=O)/c(=C/c2cccc(NC(=O)c3cccnc3)c2)[nH]c1=O | 4850 | 1600 | 1060 | 
CC(C)(C)c1[nH]cnc1/C=c1\[nH]c(=O)/c(=C/c2ccc3cc[nH]c3c2)[nH]c1=O | 1840 | 3770 | 2900 | 
CC(C)(C)c1[nH]cnc1/C=c1\[nH]c(=O)/c(=C/c2cccc(NC(=O)C3CCCC3)c2)[nH]c1=O | 743 | 3130 | 643 | 
CC(C)(C)c1[nH]cnc1/C=c1\[nH]c(=O)/c(=C/c2cccc(NC(=O)Cc3ccccc3)c2)[nH]c1=O | 1100 | 1700 | 474 | 
CC(C)(C)c1[nH]cnc1/C=c1\[nH]c(=O)/c(=C/c2ccc3[nH]ccc3c2)[nH]c1=O | 223 | 6.7 | 5.9 | 
CC(C)(C)c1[nH]cnc1/C=c1\[nH]c(=O)/c(=C/c2cccc(N)c2)[nH]c1=O | 165 | 80.1 | 15.3 | 
CC(C)C(=O)Nc1cccc(/C=c2\[nH]c(=O)/c(=C/c3nc[nH]c3C(C)(C)C)[nH]c2=O)c1 | 977 | 1460 | 606 | 
CC(C)(C)c1[nH]cnc1/C=c1\[nH]c(=O)/c(=C/c2cccc(NC(=O)c3ccccc3)c2)[nH]c1=O | 936 | 398 | 47.6 | 
CC(C)(C)c1[nH]cnc1/C=c1\[nH]c(=O)/c(=C/c2ccccc2)[nH]c1=O [PLINABULIN] | 30.9 | 18.4 | 8.8 | Activity [5]: 67%; Activity [18]: Active
